Consider 1 compound from article PMC6264316, “The Triterpenes 3β-Lup-20(29)-en-3-ol and 3β-Lup-20(29)-en-3-yl Acetate and the Carbohydrate 1,2,3,4,5,6-Hexa-O-acetyl-dulcitol as Photosynthesis Light Reactions Inhibitors” (Molecules, 2011).

Experiment [1] concerns the target T1, Mg2+-ATPase bound to thylakoid membrane (membrane-bound CF1; H+-ATPase) (Spinacia oleracea, UniProt P00825+P06450).
T1 construct: gene atpB; with ATP synthase subunit a, chloroplastic; ATP synthase subunit b, chloroplastic; ATP synthase subunit b', chloroplastic; ATP synthase subunit c, chloroplastic
Nature of the experiment: light-triggered Mg2+-ATPase activity in thylakoids, released Pi. The format is biochemical. As to conditions: read-out: Mg^2+-ATPase (%). An excerpt: light-triggered Mg2+-ATPase activity in thylakoids, released Pi on Mg2+-ATPase bound to thylakoid membrane (membrane-bound CF1; H+-ATPase)

Experiment [2] deals with T2, isolated CF1 (Ca2+-ATPase) (Spinacia oleracea, UniProt P00825+P06450).
T2 construct: gene atpB
Nature of the experiment: Ca2+-ATPase activity, released Pi. The format is biochemical. As to conditions: read-out: Ca^2+-ATPase (%). An excerpt: Ca2+-ATPase activity, released Pi on isolated CF1 (Ca2+-ATPase)

Each structure is given as a SMILES string.

T2 sequence (P00825 whole entry): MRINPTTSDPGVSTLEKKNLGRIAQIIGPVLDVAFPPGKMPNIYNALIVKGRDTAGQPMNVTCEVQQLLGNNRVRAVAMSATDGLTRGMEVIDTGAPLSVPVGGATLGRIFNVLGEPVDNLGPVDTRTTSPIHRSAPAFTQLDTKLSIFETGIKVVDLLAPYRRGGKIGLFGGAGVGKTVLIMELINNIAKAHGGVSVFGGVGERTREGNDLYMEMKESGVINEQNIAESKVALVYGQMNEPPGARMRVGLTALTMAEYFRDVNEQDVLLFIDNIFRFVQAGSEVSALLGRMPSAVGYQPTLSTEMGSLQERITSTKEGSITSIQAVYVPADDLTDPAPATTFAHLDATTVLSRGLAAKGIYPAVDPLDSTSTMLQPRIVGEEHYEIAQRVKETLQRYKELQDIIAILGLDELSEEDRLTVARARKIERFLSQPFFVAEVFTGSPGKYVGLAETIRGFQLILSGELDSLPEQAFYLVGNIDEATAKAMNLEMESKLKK
T2 sequence (P06450 whole entry): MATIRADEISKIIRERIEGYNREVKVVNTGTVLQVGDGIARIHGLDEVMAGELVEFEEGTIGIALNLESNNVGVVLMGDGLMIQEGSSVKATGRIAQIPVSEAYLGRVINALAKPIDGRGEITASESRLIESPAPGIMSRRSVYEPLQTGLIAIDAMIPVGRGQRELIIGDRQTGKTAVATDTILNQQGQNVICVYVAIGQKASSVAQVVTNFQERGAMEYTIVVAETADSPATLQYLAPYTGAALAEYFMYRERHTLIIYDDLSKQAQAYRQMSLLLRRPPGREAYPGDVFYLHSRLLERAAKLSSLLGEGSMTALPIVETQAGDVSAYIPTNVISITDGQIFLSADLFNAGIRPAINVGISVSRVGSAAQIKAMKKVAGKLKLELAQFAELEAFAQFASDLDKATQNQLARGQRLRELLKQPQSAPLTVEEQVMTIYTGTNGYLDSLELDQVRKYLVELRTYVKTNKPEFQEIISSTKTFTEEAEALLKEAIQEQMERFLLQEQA
T2 sequence (P05435 42-364 partner): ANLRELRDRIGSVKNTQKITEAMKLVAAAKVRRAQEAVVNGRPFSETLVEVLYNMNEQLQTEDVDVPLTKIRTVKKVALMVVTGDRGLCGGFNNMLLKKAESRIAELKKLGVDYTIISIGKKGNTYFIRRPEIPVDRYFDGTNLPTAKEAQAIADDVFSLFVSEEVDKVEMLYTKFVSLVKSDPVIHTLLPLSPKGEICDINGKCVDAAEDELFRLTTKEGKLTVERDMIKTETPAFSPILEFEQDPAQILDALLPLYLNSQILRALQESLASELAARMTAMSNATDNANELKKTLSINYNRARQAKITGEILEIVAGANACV
T2 sequence (P11402 71-257 partner): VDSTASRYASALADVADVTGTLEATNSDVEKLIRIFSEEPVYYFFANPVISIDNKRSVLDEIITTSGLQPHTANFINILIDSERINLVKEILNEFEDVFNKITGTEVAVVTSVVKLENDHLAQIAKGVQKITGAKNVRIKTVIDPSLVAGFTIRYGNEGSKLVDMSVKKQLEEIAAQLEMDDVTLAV
T2 sequence (P00833 whole entry partner): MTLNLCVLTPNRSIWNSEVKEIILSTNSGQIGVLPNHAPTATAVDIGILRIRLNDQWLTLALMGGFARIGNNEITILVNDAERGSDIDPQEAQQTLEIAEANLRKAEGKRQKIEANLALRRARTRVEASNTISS

With `C=C(C)[C@@H]1CC[C@]2(C)CC[C@]3(C)[C@H](CC[C@@H]4[C@@]5(C)CC[C@H](O)C(C)(C)[C@@H]5CC[C@]43C)[C@@H]12` [compound 1, 3β-Lup-20(29)-en-3-ol], the activity at 100 µM in experiment [1] was determined as 65%. The activity at 300 µM in experiment [2] came out at 179%.
